Several values for one entry are separate records, joined by “and”; a condition that tells them apart may be missing. Equal values may be shown once. Toxic doses and inconclusive results are not listed.
Tested on: P388 leukemia ip, CD2F1 mice, survival T/C
Assay: NCI In Vivo Anticancer Drug Screen. Data for tumor model P388 Leukemia (intraperitoneal) in CD2F1 (CDF1) mice
Details: endpoint: median survival time, higher = longer survival
Summary of the method: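 Mice carrying the transplanted tumor received test compound or vehicle. Survival was recorded in each group, and the value is the treated-group measurement divided by that of the vehicle-treated control group.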

[1] = dose: 100.0 mg/kg/injection, schedule: Q01DX001 (ip), vehicle: Klucel (hydroxypropylcellulose) (HPC)
[2] = dose: 200.0 mg/kg/injection, schedule: Q01DX001 (ip), vehicle: Klucel (hydroxypropylcellulose) (HPC)
[3] = dose: 400.0 mg/kg/injection, schedule: Q01DX001 (ip), vehicle: Klucel (hydroxypropylcellulose) (HPC)
[4] = dose: 60.0 mg/kg/injection, schedule: Q01DX005 (ip), vehicle: saline
[5] = dose: 120.0 mg/kg/injection, schedule: Q01DX005 (ip), vehicle: saline
[6] = dose: 240.0 mg/kg/injection, schedule: Q01DX005 (ip), vehicle: saline
[7] = dose: 50.0 mg/kg/injection, schedule: Q01DX005 (ip), vehicle: saline with Tween-80
[8] = dose: 100.0 mg/kg/injection, schedule: Q01DX005 (ip), vehicle: saline with Tween-80
[9] = dose: 200.0 mg/kg/injection, schedule: Q01DX005 (ip), vehicle: saline with Tween-80

## CN(C)CCCCCC[N+](C)(C)Cc1ccc(C[N+](C)(C)CCCCCC[N+](C)(C)Cc2ccc(CCl)cc2)cc1
dose: 3.12 mg/kg/injection, schedule: Q04DX003 (ip), vehicle: saline
  T/C: 108 % of control
dose: 6.25 mg/kg/injection, schedule: Q04DX003 (ip), vehicle: saline
  T/C: 106 % of control
dose: 12.5 mg/kg/injection, schedule: Q04DX003 (ip), vehicle: saline
  T/C: 97 % of control

## Cc1cc(N2C(=O)CSC2=S)c([N+](=O)[O-])cc1C
dose: 50.0 mg/kg/injection, schedule: Q01DX009 (ip), vehicle: suspension in saline
  T/C: 91 % of control
dose: 100.0 mg/kg/injection, schedule: Q01DX009 (ip), vehicle: suspension in saline
  T/C: 89 % of control

## CC(C)(O)c1ccccc1S(=O)c1ccccc1 (stereo unspecified)
[1]
  T/C: 101 % of control
[2]
  T/C: 100 % of control
[3]
  T/C: 92 % of control

## C=CN=NNc1ccc(C#N)cc1
dose: 100.0 mg/kg/injection, schedule: Q04DX003 (ip), vehicle: saline with Tween-80
  T/C: 90 % of control
dose: 200.0 mg/kg/injection, schedule: Q04DX003 (ip), vehicle: saline with Tween-80
  T/C: 106 % of control

## Cc1c2cnccc2c(CO)c2[nH]c3ccccc3c12
dose: 12.5 mg/kg/injection, schedule: Q04DX002 (ip), vehicle: saline with Tween-80
  T/C: 119 % of control
dose: 100.0 mg/kg/injection, schedule: Q04DX002 (ip), vehicle: saline with Tween-80
  T/C: 163 % of control

## CC(=O)O[C@H]1[C@H]2O[C@]23[C@@H]2CC[C@]4(O)C[C@@H](O)CC[C@]4(C)[C@H]2CC[C@]3(C)[C@H]1c1ccc(=O)oc1
dose: 12.5 mg/kg/injection, schedule: Q01DX009 (ip), vehicle: Klucel (hydroxypropylcellulose) (HPC)
  T/C: 114 % of control
dose: 25.0 mg/kg/injection, schedule: Q01DX009 (ip), vehicle: Klucel (hydroxypropylcellulose) (HPC)
  T/C: 105 % of control
dose: 50.0 mg/kg/injection, schedule: Q01DX009 (ip), vehicle: Klucel (hydroxypropylcellulose) (HPC)
  T/C: 105 % of control
dose: 100.0 mg/kg/injection, schedule: Q01DX009 (ip), vehicle: Klucel (hydroxypropylcellulose) (HPC)
  T/C: 120 % of control

## CC(C)(C)[Si]1(C(C)(C)C)N([Si](C)(C)C)N1[Si](C)(C)C (stereo unspecified)
[4]
  T/C: 106 % of control
[5]
  T/C: 100 % of control
[6]
  T/C: 105 % of control

## CCN=Cc1c(O)c(O)c(C(C)C)c2cc(C)c(-c3c(C)cc4c(C(C)C)c(O)c(O)c(C=NCC)c4c3O)c(O)c12
[7]
  T/C: 86 % of control
[8]
  T/C: 86 % of control
[9]
  T/C: 104 % of control

## COC(=O)C1CC2C(=O)N(C)C(Br)C(Br)C12 (stereo unspecified)
dose: 100.0 mg/kg/injection, schedule: Q04DX002 (ip), vehicle: saline
  T/C: 101 % of control
dose: 200.0 mg/kg/injection, schedule: Q04DX002 (ip), vehicle: saline
  T/C: 95 % of control

## O=C(c1ccc(F)cc1)c1no[n+]([O-])c1C(=O)c1ccc(F)cc1
dose: 37.5 mg/kg/injection, schedule: Q01DX009 (ip), vehicle: saline with Tween-80
  T/C: 122 % of control
dose: 75.0 mg/kg/injection, schedule: Q01DX009 (ip), vehicle: saline with Tween-80
  T/C: 118 % of control

## CC(C)CN1CCOCC1
dose: 25.0 mg/kg/injection, schedule: Q01DX009 (ip), vehicle: saline
  T/C: 100 % of control
dose: 50.0 mg/kg/injection, schedule: Q01DX009 (ip), vehicle: saline
  T/C: 95 % of control
dose: 100.0 mg/kg/injection, schedule: Q01DX009 (ip), vehicle: saline
  T/C: 104 % of control

## CCC(=O)NC(N)=NC#N
[4]
  T/C: 99 % of control
[5]
  T/C: 101 % of control
[6]
  T/C: 98 % of control

## CC(C)NS(=O)(=O)OCC(O)(CC(Cl)(Cl)Cl)c1ccccc1 (stereo unspecified)
dose: 50.0 mg/kg/injection, schedule: Q01DX009 (ip), vehicle: saline with Tween-80
  T/C: 105 % of control
dose: 100.0 mg/kg/injection, schedule: Q01DX009 (ip), vehicle: saline with Tween-80
  T/C: 109 % of control and 112 % of control
dose: 200.0 mg/kg/injection, schedule: Q01DX009 (ip), vehicle: saline with Tween-80
  T/C: 105 % of control

## Brc1cc2c(cc1C=NC1CCCCC1)OCO2
[1]
  T/C: 99 % of control
[2]
  T/C: 101 % of control
[3]
  T/C: 101 % of control

## C/C(=N\NC(=S)N1CCN(c2ccccn2)CC1)c1cccc2cccnc12
[7]
  T/C: 103 % of control
[8]
  T/C: 106 % of control
[9]
  T/C: 110 % of control
